The results in this text go back to patent publication US9273043B2, “TRPV1 antagonists including dihydroxy substituent and uses thereof” (Purdue Pharma L.P., priority 2011, dated 2016).

Experiment [1] has as its target T1, human TRPV1 (Homo sapiens (Human), UniProt Q8NER1). Put plainly: pH-based assay, Protocol 2, TRPV1/CHO cells (hpH-CHO), Fura-2 Ca2+ influx. Format: cell-based. As to conditions: pH 5.0-5.1 (H2SO4), mean ± SEM.
The target of experiment [2] is T1, human TRPV1. Put plainly: Capsaicin-based assay, Protocol 2, TRPV1/CHO cells (hCAP-CHO), Fluo-4 FLIPR. In kind it is cell-based. As to conditions: 100 nM capsaicin, mean ± SEM. The procedure, abridged:
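CHO cells stably transfected with human TRPV1 cDNA (G418-selected) were loaded with 3 μM Fluo-4 for 1 h, washed, then read on FLIPR with 15 s baseline before additions. Compound tested at final 100 μM to 1.5625 μM against capsaicin stimulation; calcium fluorescence time course curve-fitted.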

T1 sequence (Q8NER1 whole entry, looked up): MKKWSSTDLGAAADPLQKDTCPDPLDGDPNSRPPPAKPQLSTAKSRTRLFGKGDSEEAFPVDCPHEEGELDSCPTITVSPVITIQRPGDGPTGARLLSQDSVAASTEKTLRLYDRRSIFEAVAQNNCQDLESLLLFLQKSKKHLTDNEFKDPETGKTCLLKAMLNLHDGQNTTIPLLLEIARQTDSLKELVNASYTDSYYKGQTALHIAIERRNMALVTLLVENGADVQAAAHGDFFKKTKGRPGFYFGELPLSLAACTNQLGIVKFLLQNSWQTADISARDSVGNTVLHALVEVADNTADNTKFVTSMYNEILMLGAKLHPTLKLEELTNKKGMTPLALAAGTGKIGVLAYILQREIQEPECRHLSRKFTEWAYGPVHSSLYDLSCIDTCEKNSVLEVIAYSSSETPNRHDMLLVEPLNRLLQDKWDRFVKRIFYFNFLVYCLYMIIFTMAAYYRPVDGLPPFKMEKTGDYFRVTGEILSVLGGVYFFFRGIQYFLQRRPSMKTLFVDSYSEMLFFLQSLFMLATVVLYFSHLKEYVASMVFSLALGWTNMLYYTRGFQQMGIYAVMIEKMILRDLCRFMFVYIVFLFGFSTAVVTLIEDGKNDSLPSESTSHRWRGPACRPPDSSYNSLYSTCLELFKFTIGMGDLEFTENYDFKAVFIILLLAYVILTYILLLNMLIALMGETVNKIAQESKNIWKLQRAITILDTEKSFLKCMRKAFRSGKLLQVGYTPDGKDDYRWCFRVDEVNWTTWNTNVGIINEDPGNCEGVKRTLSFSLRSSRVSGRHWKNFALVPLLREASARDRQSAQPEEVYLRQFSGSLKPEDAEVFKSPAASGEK

As to `C[C@H]1CN(c2ncc([C@H](O)CO)cc2F)CCN1C(=O)Nc1nc2ccccc2s1` [A122(a), (S)—N-(benzo[d]thiazol-2-yl)-4-(5-((S)-1,2-dihydroxyethyl)-3-fluoropyridin-2-yl)-2-methylpiperazine-1-carboxamide], the half-inhibitory concentration (IC50) in experiment [1] was 98 ± 27 nM; in experiment [2] it was 177 ± 69 nM.
Turning to `C[C@@H]1CN(C(=O)Nc2nc3ccc(F)cc3s2)CCN1c1ncc([C@H](O)CO)cc1F` [A125(b), (R)-4-{5-[(S)-1,2-dihydroxyethyl]-3-fluoropyridin-2-yl}-N-(6-fluorobenzo[d]thiazol-2-yl)-3-methylpiperazine-1-carboxamide], the results for the IC50 in experiment [1] and in experiment [2] were 81 ± 13 nM and 112 ± 32 nM, respectively.
Turning to `Cc1ccc2nc(NC(=O)N3CCN(c4ncc([C@H](O)CO)cc4F)C[C@@H]3C)sc2c1` [A126(a), (S)-4-(5-((S)-1,2-dihydroxyethyl)-3-fluoropyridin-2-yl)-2-methyl-N-(6-methylbenzo[d]thiazol-2-yl)piperazine-1-carboxamide], the values for the half-inhibitory concentration (IC50) in experiment [1] and in experiment [2] were 12.2 ± 5.9 nM and 40.2 ± 11 nM, respectively.
For the compound `C[C@H]1CN(c2ncc([C@H](O)CO)cc2F)CCN1C(=O)Nc1nc2cc(F)c(F)cc2s1` [A158(a), (S)—N-(5,6-difluorobenzo[d]thiazol-2-yl)-4-(5-((S)-1,2-dihydroxyethyl)-3-fluoropyridin-2-yl)-2-methylpiperazine-1-carboxamide], the figures for the concentration for half-maximal inhibition (IC50) in experiment [1] and in experiment [2] were 17.1 nM and 62.4 ± 13.8 nM, respectively.
For `C[C@@H]1CN(C(=O)Nc2nc3cc(F)c(F)cc3s2)CCN1c1ncc([C@H](O)CO)cc1F` [AE, (R)—N-(5,6-difluorobenzo[d]thiazol-2-yl)-4-{5-[(S)-1,2-dihydroxyethyl]-3-fluoropyridin-2-yl}-3-methylpiperazine-1-carboxamide], in that order: 40.8 ± 3.2 nM and 68 ± 17 nM.
With `C[C@H](O)[C@@H](O)c1cnc(N2CCN(C(=O)Nc3nc4cc(F)c(F)cc4s3)C[C@H]2C)c(F)c1` [B158(j), (R)—N-(5,6-difluorobenzo[d]thiazol-2-yl)-4-{5-[(1S,2S)-1,2-dihydroxypropyl]-3-fluoropyridin-2-yl}-3-methylpiperazine-1-carboxamide], the IC50 amounted to 136 ± 20 nM in experiment [1] and 49 ± 10 nM in experiment [2].
For `C[C@H](O)[C@@H](O)c1cnc(N2CCN(C(=O)Nc3nc4ccc(F)cc4s3)CC2)c(Cl)c1` [C4(r), 4-{3-Chloro-5-[(1S,2S)-1,2-dihydroxypropyl]pyridin-2-yl}-N-(6-fluorobenzo[d]thiazol-2-yl)piperazine-1-carboxamide], in that order: 17.4 ± 1.2 nM and 42.8 ± 2 nM.
For `C[C@H](O)[C@@H](O)c1cnc(N2CCN(C(=O)Nc3nc4ccc(F)cc4s3)CC2)c(F)c1` [C125(r), 4-(5-((1S,2S)-1,2-dihydroxypropyl)-3-fluoropyridin-2-yl)-N-(6-fluorobenzo[d]thiazol-2-yl)piperazine-1-carboxamide], in that order: 69 ± 3 nM and 99 ± 24 nM.
As to `Cc1ccc2nc(NC(=O)N3CCN(c4ncc([C@H](O)[C@H](C)O)cc4F)CC3)sc2c1` [C126(r), 4-[5-((1S,2S)-1,2-Dihydroxy-propyl)-3-fluoro-pyridin-2-yl]piperazine-1-carboxylic acid (6-methyl-benzothiazol-2-yl)-amide], the half-inhibitory concentration (IC50) in experiment [1] amounted to 67 ± 12 nM; in experiment [2], 71 ± 20 nM.
For the compound `Cc1cc2nc(NC(=O)N3CCN(c4ncc([C@H](O)[C@H](C)O)cc4F)CC3)sc2cc1C` [C170(r), 4-(5-((1S,2S)-1,2-dihydroxypropyl)-3-fluoropyridin-2-yl)-N-(5,6-dimethylbenzo[d]thiazol-2-yl)piperazine-1-carboxamide], the IC50 stood at 32.8 ± 8.1 nM in experiment [1] and 89 ± 34 nM in experiment [2].

For orientation: IC50 means the midpoint of a concentration-inhibition curve. Higher therefore signals weaker potency.
